Consider one molecule from patent US20190336489A1, “NON PEPTIDE HETEROBIVALENT MOLECULES FOR TREATING INFLAMMATORY DISEASES” (GLAXOSMITHKLINE INTELLECTUAL PROPERTY DEVELOPMENT LIMITED, priority 2017, published 2019).

SMILES strings stand for the structures. Marks after values point to notes of the source that are not given here.

The target of assay [1] is T1, CCR3 (Homo sapiens, UniProt P51677).
T1 construct: expressed in transfected cells; host or cells: CHOK1
T1 sequence (P51677 1-355): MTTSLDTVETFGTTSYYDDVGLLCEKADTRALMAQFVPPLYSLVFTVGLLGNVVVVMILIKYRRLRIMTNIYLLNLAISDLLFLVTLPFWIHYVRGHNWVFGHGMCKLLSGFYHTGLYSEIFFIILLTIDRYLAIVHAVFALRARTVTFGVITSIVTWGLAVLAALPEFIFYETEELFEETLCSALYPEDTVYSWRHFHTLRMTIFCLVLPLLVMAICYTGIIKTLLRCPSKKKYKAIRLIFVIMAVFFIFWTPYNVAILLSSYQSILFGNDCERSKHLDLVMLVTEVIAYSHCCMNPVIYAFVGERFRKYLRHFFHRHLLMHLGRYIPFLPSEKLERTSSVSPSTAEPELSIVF
Briefly: Antibody Dependent Cellular Cytotoxicity (ADCC) reporter assay, CCR3 target cells. Type of assay: cell-based. The settings on record: CHOK1 cells overexpressing CCR3. The source says: (§1) The compounds described herein have been characterized in an ADCC reporter assay (see Section 1.2 ADCC reporter for protocol). […] Furthermore, the assay also confirms that this formed complex can engage and activate the Fc receptors on immune cells. Lastly, the assay provides both potency (EC50) and efficacy (signal to background ratio) for each compound in a dose dependant manner.
(§2) This assay has four components • 1) Heterobivalent Compound consisting of a targeting ligand and a hapten connected by a linker (ranging from 10 uM-1 pM) • 2) A hapten antibody with functional Fc domain (typical concentrations are 0.01 ug/mL-200 ug/mL) • 3) Target cells—CHOK1 cells engineered to overexpress either CCR1, CCR2, or CCR3, or CEMNKR cells engineered to overexpress CCR5 (typically 1000-20,000 cells per well) • 4) Reporter cells—Jurkat cells engineered to express FcgRIIIa (ADCC reporter assay) and with a reporter gene (luciferase) under the control of the NFAT promoter (typically 3000-75,000 cells per well)
(§3) Reagents are combined in final volume of 20 uL in 384-well tissue culture treated plated.
All components are incubated together for ˜12-18 hours. Add BioGlo Detection reagent (from Promega) to lyse the cells and provide substrate for the luciferase reporter protein. Signal is measured on a microplate reader capable of measuring luminescence. Signal:Background is calculated by dividing the signal of a test well by the signal obtained when no compound is included in the assay. EC50 calculations were done using Graphpad Prism Software, specifically a nonlinear regression curve fit (Y=Bottom+(Top−Bottom)/(1+10^((Log EC50−X)*HillSlope)))
A general note: A reporter such as luciferase makes a cellular process visible.

Assay [2] addresses T2, CCR5 (Homo sapiens, UniProt P51681).
T2 construct: expressed in transfected cells; host or cells: CEMNKR
Briefly: Antibody Dependent Cellular Cytotoxicity (ADCC) reporter assay, CCR5 target cells. It counts as cell-based. Particulars: CEMNKR cells overexpressing CCR5.
Source text: as §1, §2, §3
All components are incubated together for ˜12-18 hours. […] Signal is measured on a microplate reader capable of measuring luminescence. Signal:Background is calculated by dividing the signal of a test well by the signal obtained when no compound is included in the assay. […]

[3] abbreviates: Jurkat FcgRIIIa NFAT-luciferase reporter cells, EC50 class, read-out: ADCC potency.
Where [4] appears, read: maximum signal:background (S/B).

T2 sequence (P51681 whole entry): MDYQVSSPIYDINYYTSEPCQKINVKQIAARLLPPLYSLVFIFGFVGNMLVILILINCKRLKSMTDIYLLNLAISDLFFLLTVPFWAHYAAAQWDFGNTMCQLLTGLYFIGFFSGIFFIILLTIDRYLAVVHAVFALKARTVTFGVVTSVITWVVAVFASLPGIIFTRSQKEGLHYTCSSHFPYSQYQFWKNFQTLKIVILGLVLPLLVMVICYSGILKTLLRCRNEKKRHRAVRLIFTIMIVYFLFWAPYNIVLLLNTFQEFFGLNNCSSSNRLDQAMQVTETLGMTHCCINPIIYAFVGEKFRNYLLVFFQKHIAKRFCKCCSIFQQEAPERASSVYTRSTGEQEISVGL

As to `O=C(NCc1ccc(C(=O)NCCOCCOCCOCCOCCOCCOCCOCCOCCOCCNc2ccc([N+](=O)[O-])cc2[N+](=O)[O-])cc1)NC[C@H]1CN(Cc2ccc(Cl)c(Cl)c2)CCO1` [Compound 20, (S)-4-((3-((4-(3,4-dichlorobenzyl)morpholin-2-yl)methyl)ureido)methyl)-N-(29-((2,4-dinitrophenyl)amino)-3,6,9,12,15,18,21,24,27-nonaoxanonacosyl)benzamide], the EC50 in assay [1] (setting [3]) and in assay [2] (setting [3]) was < 1 nM each time. The ADCC efficacy result in assay [1] (setting [4]) is recorded as “+++^f (Maximum S:B > 20 = +++)”; in assay [2] (setting [4]), “+++^g (Maximum Signal:Background > 70 = +++)”.
